The target in this test is T1, rat α2B adrenoceptor (Rattus norvegicus, UniProt P19328).
T1 construct: expressed in transfected cells; host or cells: CHO (CHO-RNG)
T1 sequence (P19328 1-453): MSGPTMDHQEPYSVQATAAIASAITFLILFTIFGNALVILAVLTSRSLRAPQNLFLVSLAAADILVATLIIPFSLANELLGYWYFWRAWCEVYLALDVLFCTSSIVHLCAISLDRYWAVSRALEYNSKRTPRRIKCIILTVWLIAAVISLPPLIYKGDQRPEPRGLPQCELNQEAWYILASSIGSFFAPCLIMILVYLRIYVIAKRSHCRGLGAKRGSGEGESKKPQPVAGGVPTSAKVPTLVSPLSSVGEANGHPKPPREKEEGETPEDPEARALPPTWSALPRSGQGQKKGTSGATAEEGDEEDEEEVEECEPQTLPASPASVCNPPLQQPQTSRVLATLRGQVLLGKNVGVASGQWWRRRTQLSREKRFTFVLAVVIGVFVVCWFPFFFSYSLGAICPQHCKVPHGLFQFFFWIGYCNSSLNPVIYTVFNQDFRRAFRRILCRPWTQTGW
As to the kind of experiment: Receptor binding assay, [3H]rauwolscine, CHO-RNG cell membranes. The settings on record: 22°C, 30 minutes. The protocol: (§1) Cell preparation: Chinese hamster ovary (CHO) cells expressing the human α2A and human α2C (CHO-C10 and CHO-C4 respectively) receptors and CHO cells (CHO-RNG) expressing the rat α2B adrenoceptor were grown to near confluence in Dulbecco's modified Eagle's medium supplemented with 10% fetal bovine serum using standard cell culture methods. Cells were harvested by scraping and placed into cold buffer of the following composition: 50 mM Tris-HCl, 5 mM EDTA, pH 7.4). Cells were then homogenized with a Polytron homogenizer for 2 X 10 sec at setting #7, and centrifuged for 20 minutes at 49,000 x g. The pellet fraction was washed (resuspended in Tris-HCl, pH 8 buffer and centrifuged for 15-20 minutes at 49,000 x g) 2 times and stored at -100°C until binding assay.
Binding Studies: The radioligands [^3H]rauwolscine (specific activity 80 Ci/mmol) and [^3H]prazosin (specific activity 76 Ci/mmol) were obtained from New England Nuclear, Boston, MA. Frozen membrane pellet was resuspended in 25 mM glycine/glycine, pH 7.5 and incubated with radioligand under the following conditions: CHO-C10, CHO-RNG, CHO-C4-[^3H]rauwolscine, 22°C, 30 minutes; RKC-[^3H]rauwolscine, 0°C, 120 minutes; and, HCC-[^3H]prazosin, 22°C, 30 minutes in a final volume of 500 ul. At the end of the incubation period, the samples were filtered through glass filters (Whatman GF/B) in a 96 well cell harvester and rapidly washed four times with 4 mL of iced-cold 50 mM Tris-HCl buffer. The filters were then oven dried and transferred to scintillation vials containing 10 mL of Beckman's Ready Protein® scintillation cocktail for counting. Specific binding defined by 10 uM phentolamine for competition studies were as follows: 2.4 nM [^3H]brimonidine-RbICB 62%; 2.4 nM [^3H]rauwolscine-RbICB 75%; 2 nM [^3H]rauwolscine-RbKc 88%; 0.3 nM [^3H] rauwolscine-CHO-C10 99%; 0.4 nM [^3H]rauwolscine-CHO-RNG 99%, 0.3 nM [^3H]prazosin 87%; and 1 nM [^3H]rauwolscine-CHO-C4 90%. Protein concentrations were determined with a protein assay kit from Bio Rad. Binding isotherms, equilibrium dissociation and affinity constants were analyzed and determined by the non-linear least squares curve fitting programs EBDA (BioSoft) or AccuFit Competition/Saturation by Beckman.
as §1, with “α2A (CHO-C10)” for “α2A”, “and” for “and human α2C (CHO-C10 and CHO-C4 respectively) receptors and CHO cells (CHO-RNG) expressing”, “α2B(CHO-RNG) human α2Aadrenoceptors” for “α2B adrenoceptor”
The radioligands [^3H)rauwolscine (specific activity 80 Ci/mmol) and [^3H]prazosin (specific activity 76 Ci/mmol) were obtained from New England Nuclear, Boston, MA. Frozen membrane pellet was resuspended in 25 mM glycine/glycine, pH 7.4 and incubated with radioligand under the following conditions: CHO-C10, CHO-RNG, CHO-C4-[^3H]rauwolscine, 22°C, 30 min.; and, HCC-[^3H]prazosin, 22°C, 30 minutes in a final volume of 500 ul. At the end of the incubation period, the samples were filtered through glass fiber filters (Whatman GF/B) in a 96 well cell harvester and rapidly washed four times with 4 mL of iced-cold 50 mM Tris-CHl buffer. The filters were then oven dried and transferred to scintillation vials containing 5 mL of Beckman's Ready Protein® scintillation cocktail for counting. Specific binding defined by 10 uM phentolamine for competition studies were as follows: 0.3 nM[^3H] rauwolscine-CHO-C10 99%; 0.4 nM [^3H]rauwolscine-CHO-RNG 99%, and 0.3 nM [^3H] prazosin-HCC 87%. Protein concentrations were determined with a protein assay kit from Bio Rad. […]
Regarding `c1ccc(Nc2ncc[nH]2)cc1`, the inhibitory constant (Ki) came out at 1890 nM.
To `Clc1ccccc1Nc1ncc[nH]1` belongs 1940 nM.
The compound `Brc1ccccc1Nc1ncc[nH]1` registered a Ki of 1450 nM. This Ki and that of the compound before are within 1.5-fold of each other.
To `Clc1cccc(Cl)c1Nc1ncc[nH]1` belongs 587 nM; to `Cc1ccccc1Nc1ncc[nH]1`, 561 nM.
To `Brc1c(Nc2ncc[nH]2)ccc2nccnc12` belongs 12900 nM; to `Cc1c(Nc2ncc[nH]2)ccc2nccnc12`, 1160 nM; to `Cc1c(Nc2ncc[nH]2)ccc2c1OCCO2`, 82 nM.
The compound `c1cc2c(c(Nc3ncc[nH]3)c1)CCCC2` gave a Ki of 152 nM.
In turn, `Cc1c(Nc2ncc[nH]2)ccc2c1NCCO2` had a Ki of 436 nM.
To `COc1ccc(Nc2ncc[nH]2)c(C)c1` belongs 434 nM.

Usually Ki stands for the equilibrium dissociation constant of an inhibitor or competing ligand from its target. A low value points to higher affinity.

These data come from patent EP0741709B1, “AROMATIC 2-AMINO-IMIDAZOLE DERIVATIVES AS ALPHA-2A ADRENOCEPTOR AGONISTS” (Allergan Sales, Inc., priority 1994, dated 1995).
